Experimental data as given in patent publication US7211685B2, “Calcium receptor antagonists” (Japan Tobacco Inc., priority 2000, dated 2007).
Structures can show the parent of a compound that is named as a salt.

Legend:
human calcium receptor = biological target: T1, human calcium receptor (Homo sapiens, UniProt P41180); experiment: Evaluation of antagonistic action on calcium receptor using reporter gene (luciferase); format: cell-based
T1 construct: expressed in transfected cells; host or cells: cell strain derived from rat adrenal
T1 sequence (P41180 20-1078): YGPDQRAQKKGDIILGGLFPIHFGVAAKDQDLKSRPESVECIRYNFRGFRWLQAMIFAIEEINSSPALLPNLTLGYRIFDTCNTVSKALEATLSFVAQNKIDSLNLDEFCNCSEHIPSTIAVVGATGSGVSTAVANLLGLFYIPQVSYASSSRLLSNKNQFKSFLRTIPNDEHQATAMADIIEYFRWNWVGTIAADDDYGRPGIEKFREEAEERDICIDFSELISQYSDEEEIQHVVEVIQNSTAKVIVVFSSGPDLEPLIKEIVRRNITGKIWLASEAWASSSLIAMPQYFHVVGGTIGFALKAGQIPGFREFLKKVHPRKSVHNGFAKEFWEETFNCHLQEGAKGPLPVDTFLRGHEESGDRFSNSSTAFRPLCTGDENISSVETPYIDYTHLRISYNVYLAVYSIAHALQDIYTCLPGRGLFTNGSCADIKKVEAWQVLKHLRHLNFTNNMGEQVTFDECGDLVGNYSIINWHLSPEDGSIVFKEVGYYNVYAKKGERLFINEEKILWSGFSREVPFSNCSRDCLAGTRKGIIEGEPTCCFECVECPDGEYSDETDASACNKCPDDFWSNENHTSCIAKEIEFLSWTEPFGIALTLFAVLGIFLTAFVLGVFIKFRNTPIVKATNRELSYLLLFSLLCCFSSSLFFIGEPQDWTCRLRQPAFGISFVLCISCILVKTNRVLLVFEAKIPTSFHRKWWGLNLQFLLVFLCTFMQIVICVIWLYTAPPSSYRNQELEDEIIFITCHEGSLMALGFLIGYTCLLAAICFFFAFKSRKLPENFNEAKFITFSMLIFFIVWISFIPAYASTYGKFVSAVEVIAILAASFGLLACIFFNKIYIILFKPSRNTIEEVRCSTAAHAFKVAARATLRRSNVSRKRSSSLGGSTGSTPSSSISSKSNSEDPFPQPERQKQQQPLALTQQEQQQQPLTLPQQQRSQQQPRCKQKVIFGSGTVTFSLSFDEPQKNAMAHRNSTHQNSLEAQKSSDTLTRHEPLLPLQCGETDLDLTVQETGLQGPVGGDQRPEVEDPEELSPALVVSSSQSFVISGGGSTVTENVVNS
Experimental: Evaluation of Antagonistic Action on Calcium Receptor Using Reporter Gene
Luciferase cDNA and human calcium receptor cDNA were transfected into a cell strain derived from rat adrenal and the transformed cells were cultured overnight in a medium (F12 medium containing 0.5% dialyzed horse serum and 0.25% dialyzed bovine fetal serum). The next day, a dimethyl sulfoxide solution containing a test compound at 0.01–100 mM was diluted 100-fold with the medium and added to the test compound group at 10 μl per well. A medium containing 50 mM calcium chloride was added to the control group at 10 μl per well, such that the final calcium concentration of the medium became 5 mM. A medium alone was added to the blank group. After culture for 4 hr, luciferase substrate (PicaGene LT-2.0, TOYO INK) was added and the luciferase activity was measured with a photoluminometer. The inhibitory rate (%) was calculated from the obtained measured values according to the following formula.
Based on the results, the concentration (IC50) showing 50% inhibitory rate was determined.

PTH secretion [1] = experiment: PTH secretion promoting action, oral administration to male SD rats, serum PTH by rat PTH (1-84) ELISA; format: in vivo; settings: for serum PTH concentration, 30 min later / serum PTH concentration, 240 min later / serum PTH concentration, 120 min later: male SD rats, oral, mean ± S.E.
Experimental: (§1) PTH Secretion Promoting Action
(§2) The test compound was orally administered to 6 to 9-week-old male SD rats (Charles River Japan, Inc.) fasted for 20 hr, using a solvent (5% ethanol, 0.5% aqueous methyl cellulose solution) at a dose of 30 mg/5 ml/kg and 100 mg/5 ml/kg. A solvent alone was orally administered to the control group at a dose of 5 ml/kg. The blood was drawn from the tail vein immediately before and 0.5, 1, 2, 4, 6 hr after the administration of the test compound, and sera were obtained. The serum PTH concentration was measured using rat PTH (1-84) ELISA kit (Nohon Medi-Physics). The results of the serum PTH concentration before and 30 min and 4 hr after the administration of the test compound are shown in Table 24, and the results of the serum PTH concentration before and 30 min and 2 hr after the administration of the test compound of the 30 mg/5 ml/kg administration group are shown in Table 25.
In FIG. 1, FIG. 2 and FIG. 3, the time-course changes of the serum PTH concentration at the dose (30 mg/kg) of Example 22, Example 23 and Example 24 are shown.

PTH secretion [2] = experiment: PTH secretion promoting action, oral administration to female Fisher rats, serum PTH by rat PTH (1-84) ELISA; format: in vivo; settings: 30 mg/5 ml/kg, mean ± S.E.
Experimental: as §1
as §2, with “4” for “6”, “6-week-old female Fisher” for “9-week-old male SD”, “30” for “30 mg/5 ml/kg and 100”, “4” for “4, 6”, “26.” for “24, and the results of the serum PTH concentration before and 30 min and 2 hr after the administration of the test compound of the 30 mg/5 ml/kg administration group are shown in Table 25.”

PTH release = settings: OVX rat, cited from earlier work
[3] = OVX rat; cited from earlier work
[4] = tested on: osteoblast and osteoclast; settings: cited from earlier work
[5] = 100 mg/kg administration group (lower line)
[6] = Table 25, 30 mg/5 ml/kg administration group

| IC50 (human calcium receptor; Table 24, final calcium 5 mM) | IC50 (human calcium receptor; Table 25, final calcium 5 mM) | Compound | serum PTH concentration, 30 min later (PTH secretion [1]; [6]) | serum PTH concentration, 120 min later (PTH secretion [1]; [6]) | also measured |
| --- | --- | --- | --- | --- | --- |
| 41 nM | – | COc1ccccc1C(OC[C@H](O)CNC(C)(C)Cc1ccc2ccccc2c1)C1CC1 (stereo partly drawn) [Example 1, (2R)-1-[1,1-Dimethyl-2-(naphthalen-2-yl)ethylamino]-3-[(cyclopropyl)(2-methoxyphenyl)methoxy]propan-2-ol] | – | – | serum PTH concentration, 30 min later (PTH secretion [1]; [5]): 160.0 ± 13.8 pg/mL; serum PTH concentration, 240 min later (PTH secretion [1]; [5]): 58.3 ± 7.3 pg/mL |
| 27 nM | – | Cc1ccccc1C(OC[C@H](O)CNC(C)(C)Cc1ccc2ccccc2c1)C1CC1 (stereo partly drawn) [Example 2, (2R)-1-[1,1-Dimethyl-2-(naphthalen-2-yl)ethylamino]-3-[(cyclopropyl) (2-methylphenyl)methoxy]propan-2-ol] | – | – | serum PTH concentration, 30 min later (PTH secretion [1]; [5]): 154.8 ± 17.1 pg/mL; serum PTH concentration, 240 min later (PTH secretion [1]; [5]): 85.8 ± 17.3 pg/mL |
| 59 nM | – | COc1ccccc1[C@@H](C)OC[C@H](O)CNC(C)(C)Cc1ccc2ccccc2c1 [Example 22, (2R)-1-[1,1-Dimethyl-2-(naphthalen-2-yl)ethylamino]-3-[(1R)-1-(2-methoxyphenyl)ethoxy]propan-2-ol hydrochloride] | – | – | – |
| 27 nM | – | Cc1ccccc1[C@H](OC[C@H](O)CNC(C)(C)Cc1ccc2ccccc2c1)C1CC1 [Example 23, (2R)-1-[1,1-Dimethyl-2-(naphthalen-2-yl)ethylamino]-3-[(1R)-(cyclopropyl)(2-methylphenyl)methoxy]propan-2-ol] | – | – | – |
| 22 nM | – | COc1ccccc1[C@H](OC[C@H](O)CNC(C)(C)Cc1ccc2ccccc2c1)C1CC1 [Example 24, (2R)-1-[1,1-Dimethyl-2-(naphthalen-2-yl)ethylamino]-3-[(1R)-(cyclopropyl)(2-methoxyphenyl)methoxy]propan-2-ol] | – | – | – |
| 45 nM | – | Cc1ccccc1[C@H](OC[C@H](O)CNC(C)(C)Cc1ccc2ccccc2c1)C1CC1.O=C(O)/C=C/C(=O)O [Example 62] | – | – | serum PTH concentration, 30 min later (PTH secretion [2]): 620.6 ± 34.2 pg/mL; serum PTH concentration, 240 min later (PTH secretion [2]): 100.1 ± 11.7 pg/mL; serum PTH concentration, before administration (PTH secretion [2]): 82.9 ± 14.5 pg/mL |
| – | 64 nM | CC(C)(Cc1ccc2ccccc2c1)NC[C@@H](O)COC(c1cccc(C(N)=O)c1)C1CC1 (stereo partly drawn) [Example 80] | 156.6 ± 15.3 pg/mL | 76.1 ± 12.6 pg/mL | – |
| – | 51 nM | CN(C)c1ccccc1C(OC[C@H](O)CNC(C)(C)Cc1ccc2ccccc2c1)C1CC1 (stereo partly drawn) [Example 82] | 121.9 ± 9.0 pg/mL | 68.5 ± 11.4 pg/mL | – |
| – | 67 nM | Cc1ccsc1C(OC[C@H](O)CNC(C)(C)Cc1ccc2ccccc2c1)C1CC1 (stereo partly drawn) [Example 100] | 130.1 ± 53.7 pg/mL | 49.3 ± 4.4 pg/mL | – |
| – | 49 nM | CC(C)(Cc1ccc2ccccc2c1)NC[C@@H](O)COC(c1cccc(C#N)c1)C1CC1 (stereo partly drawn) [Example 105] | 115.4 ± 20.0 pg/mL | 74.3 ± 12.1 pg/mL | – |

The remaining lines, values behind:

| Compound | IC50 (human calcium receptor; Table 24, final calcium 5 mM) | IC50 (human calcium receptor; Table 25, final calcium 5 mM) | serum PTH concentration, 30 min later (PTH secretion [1]; [6]) | serum PTH concentration, 120 min later (PTH secretion [1]; [6]) | also measured |
| --- | --- | --- | --- | --- | --- |
| CC(C)(Cc1ccc2ccccc2c1)NC[C@@H](O)COCc1ccccc1 [Comparative Example 1, reference compound] | 560 nM | – | – | – | serum PTH concentration, 30 min later (PTH secretion [1]; [5]): 139.0 ± 18.8 pg/mL; serum PTH concentration, 240 min later (PTH secretion [1]; [5]): 78.9 ± 12.3 pg/mL; blood PTH concentration at 30 min relative to that before administration (PTH secretion [1]; 100 mg/kg, 30 min after administration): 1.3 times |
| COc1ccccc1C(C)OC[C@H](O)CNC(C)(C)Cc1ccc2ccccc2c1 (stereo partly drawn) [Example 5, (2R)-1-[1,1-Dimethyl-2-(naphthalen-2-yl)ethylamino]-3-[1-(2-methoxyphenyl)ethoxy]propan-2-ol hydrochloride] | 70 nM | – | – | – | – |
| CC(C)(Cc1ccc2ccccc2c1)NC[C@@H](O)CO[C@@H](c1ccccc1CO)C1CC1 [Example 58, (2R)-1-[1,1-Dimethyl-2-(naphthalen-2-yl)ethylamino]-3-[(1R)-(cyclopropyl)[2-(hydroxymethyl)phenyl]methoxy]propan-2-ol Hemifumarate] | – | – | – | – | serum PTH concentration, 30 min later (PTH secretion [2]): 644.4 ± 65.2 pg/mL; serum PTH concentration, 240 min later (PTH secretion [2]): 394.1 ± 100.9 pg/mL; serum PTH concentration, before administration (PTH secretion [2]): 179.2 ± 45.6 pg/mL |
| CC(C)(Cc1ccc2ccccc2c1)NC[C@@H](O)CO[C@H](c1ccccc1CO)C1CC1 [Example 59, (2R)-1-[1,1-Dimethyl-2-(naphthalen-2-yl)ethylamino]-3-[(1S)-(cyclopropyl)[2-(hydroxymethyl)phenyl]methoxy]propan-2-ol Hemifumarate] | – | – | – | – | serum PTH concentration, 30 min later (PTH secretion [2]): 313.4 ± 103.3 pg/mL; serum PTH concentration, 240 min later (PTH secretion [2]): 62.2 ± 10.3 pg/mL; serum PTH concentration, before administration (PTH secretion [2]): 189.8 ± 90.9 pg/mL |
| COc1ccc(CC(C)(C)NC[C@@H](O)CO[C@@H](c2ccccc2C)C2CC2)cc1C [Example 95] | – | 29 nM | 199.1 ± 25.8 pg/mL | 80.4 ± 9.6 pg/mL | – |
| Cc1ccc(CC(C)(C)NC[C@@H](O)CO[C@@H](c2ccccc2C)C2CC2)cc1C [Example 111] | – | 24 nM | 236.3 ± 60.8 pg/mL | 65.3 ± 6.4 pg/mL | – |
| COc1ccc(CC(C)(C)NC[C@@H](O)CO[C@@H](c2ccccc2C)C2CC2)cc1C [Example 127] | – | 133 nM | 265.3 ± 22.3 pg/mL | 75.2 ± 7.3 pg/mL | – |
| CC(C)(Cc1ccc2ccccc2c1)NC[C@@H](O)COc1cccc(Cl)c1C#N [NPS-2143] | – | – | – | – | PTH secretion promoting action, time course (FIG. 5) (PTH secretion [1]; 30 mg/kg, rat): sustained secretion promoting action; PTH concentration in blood after 4 hr (PTH release; NPS-2143 100 μmol/kg): about 140 pg/ml; PTH concentration in blood at 30 min (PTH release; NPS-2143 100 μmol/kg): about 115 pg/ml; effect on bone (PTH release; oral administration): no bone increase or decrease was found; concentration in blood of NPS-2143 after 24 hr [3]: not more than 10 ng/ml; concentration in blood of NPS-2143 at 8 hr after administration [3]: above 100 ng/ml; direct effect on osteoblast and osteoclast in vitro [4]: no direct effect |
| rat PTH (1-34): rat parathyroid hormone fragment (1-34) administered to OVX rat (AVSEIQLMHNLGKHLASVERMQWLRKKLQDVHNF; Parathyroid hormone; UniProt P04089 32-65, looked up, fragment) | – | – | – | – | PTH concentration in blood, peak in 30 min (PTH release; rat PTH (1-34) 5 μg/kg): about 175 pg/ml; time to restore original PTH level in blood (PTH release; rat PTH (1-34) 5 μg/kg): 2 h |
